This assay concerns CEM cells HIV-1 protection, formazan growth assay. In words: NCI AIDS Antiviral Assay. The settings on record: for IC50: measured here: growth of uninfected CEM cells. In outline:
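Steps: treat uninfected and HIV-1-infected human CEM cells at five drug levels; quantify growth by soluble formazan; retest any compound reaching 50% protection; classify actives from the retest.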

SMILES strings stand for the structures. Several values for one entry are separate records, joined by “and”; a condition that tells them apart may be missing. Identical values can stand only once. Activity calls are given as the source filed them.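 How the source made its calls: active means compounds giving half or more protection of infected cells from virus-caused growth loss, again on retest; inactive means the rest.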 Where a SMILES comes first, the peptide text is derived from it. The star is where a group is joined. Cbz = O=C(OCc1ccccc1)*; Boc = CC(C)(C)OC(=O)*; OSu = O=C1CCC(=O)N1O*; Bn = c1ccc(C*)cc1

Consider `CSc1nc(C)cc(Nc2ccc(O)c(CN3CCCCC3)c2)n1`, for which the EC50 was above 155 µM and the IC50 was found to be 64.6 µM.

Take `C(=Nc1ccc(-c2cc(-c3ccccc3)nc3ccc4ccccc4c23)cc1)c1ccccc1`: the EC50 is above 200 µM and the IC50 was 31.6 µM.

As for `COc1cc2cc(C(=O)N3CC(CCl)c4c3cc([N+](C)(C)Cc3ccc([N+](=O)[O-])n3C)c3ccccc43)[nH]c2c(OC)c1OC` (stereo unspecified), the EC50 was above 2 µM and the IC50 was 1.26 µM.

In the case of `COC(NC(=O)Nc1ccc(C)cc1)(C(F)(F)F)C(F)(F)F`, the EC50 is above 200 µM and the IC50 amounted to 27.5 µM.

Regarding `CC1(C)C2C3CCC2C2C[S+]1CC23`, the EC50 was above 162 µM and the IC50 is 107 µM.

As to `CN1C/C(=C\c2ccco2)c2nc(N)nc(-c3ccco3)c2C1`, the result was inactive.

Regarding `O=C1CSSCC(=O)NCCCN1`, the EC50 was above 45.7 µM and the half-maximal inhibitory concentration (IC50) was above 45.7 µM.

As to `CC1(C)CC(Br)(C(Br)c2ccccc2)C(=O)c2ccccc21` (stereo unspecified), the EC50 is above 200 µM and the 50% inhibitory concentration (IC50) was determined as 3.89 µM.

In the case of `CCOC(=O)Nc1nc2cc(C(=O)OC)n(C)c2s1`, the EC50 is above 200 µM and the IC50 was above 200 µM.

On to `COc1cccc(NC(=S)/C(=C(\[O-])c2ccc([N+](=O)[O-])cc2)[n+]2ccc(C(C)C)cc2)c1`, for which the EC50 is above 200 µM and the IC50 is above 200 µM.

In the case of `OC1=CN=C(c2ccccc2)Oc2ccccc21`, the EC50 was above 15.8 µM and the IC50 was above 15.8 µM.

Regarding `O=C1OC2(CCCCC2)c2ccccc21`, the EC50 is above 339 µM and the half-maximal inhibitory concentration (IC50) came to 186 µM.

On to `CCOC(=O)c1cc(NC(=O)c2ccccc2)c(=O)n2c(cc3c(Cl)cccc32)c1O`, for which the EC50 was above 200 µM and the half-maximal inhibitory concentration (IC50) was above 200 µM.

For `CC(SCC(=O)O)=[N+]1CCCCC1`, the EC50 was above 891 µM and the IC50 was above 891 µM.

Turning to `CCN(CC)CCCCC1CCN(CC(=O)N2c3cc(Cl)ccc3NC(=O)CC2C)CC1` (stereo unspecified), the EC50 is above 251 µM and the IC50 came out at 66.1 µM.

As for `C#CCSc1nnnn1-c1ccc(Br)c(C)c1`, the EC50 is above 200 µM.

For the compound `CC(=O)NC(CCC(=O)c1ccc(Cl)cc1)C(=O)O` (stereo unspecified), the EC50 was above 200 µM and the half-maximal inhibitory concentration (IC50) was above 200 µM.

For the compound `CC(=S)N/C=C/c1c(C(=O)O)cc([N+](=O)[O-])cc1[N+](=O)[O-]`, the result was inactive.

Regarding `CC1(C)CCC(=O)c2c(O)ccc(O)c21`, the result was inactive.

In the case of `CC(C)(C)OC(=O)NC(Cc1ccc(OCc2ccccc2)cc1)C(=O)NC(CCCCNC(=O)OCc1ccccc1)C(=O)NC(CCCCNC(=O)OCc1ccccc1)C(=O)ON1C(=O)CCC1=O` (stereo unspecified) (Boc-Tyr(Bn)-Lys(Cbz)-Lys(Cbz)-OSu; configuration not given here), the EC50 was above 100 µM and the IC50 worked out at 46.8 µM.

For the compound `CC(C)(C)C1CCC2c3c([nH]c4ccccc34)C3C(=O)N(c4ccccc4)C(=O)C3C2C1` (stereo unspecified), the outcome was inactive.

As for `Cc1cc(NCCCCCCCNc2cc(C)nc3cc(N)ccc23)c2ccc(N)cc2n1`, the EC50 is 5.89 µM and the IC50 is 8.71 µM.

Consider `CC(=O)Nc1nnc(S(C)(=O)=O)s1`, for which the EC50 is above 1120 µM and the 50% inhibitory concentration (IC50) was determined as 851 µM.

Consider `O=C(C1OC1c1ccc(F)cc1)C12CC3CC(CC(C3)C1)C2` (stereo unspecified), for which the EC50 is above 200 µM and the half-maximal inhibitory concentration (IC50) amounted to 12 µM.

`O=C(OCCN=C1c2ccccc2CCc2ccccc21)c1cc([N+](=O)[O-])cc([N+](=O)[O-])c1`: the EC50 is above 200 µM and the IC50 was found to be 70.8 µM.

`CSc1nc(Nc2ccccc2Cl)c2c(N)nn(C)c2n1`: the EC50 is above 200 µM and the IC50 was above 200 µM.

Consider `CC12CCC(C(=O)OC1=O)C(C)(C)O2` (stereo unspecified), for which the EC50 was above 200 µM and the half-maximal inhibitory concentration (IC50) was above 200 µM.

Consider `O=C1CCSSCCC(=O)NCCCN1`, for which the EC50 is above 40.7 µM and the 50% inhibitory concentration (IC50) is above 40.7 µM.

Turning to `O=P1(C(c2ccccc2)c2ccccc2)OC2CC(Cl)CC(C2)O1` (stereo unspecified), the EC50 was above 7.24 µM and the 50% inhibitory concentration (IC50) is above 7.24 µM.

Take `Cc1cccc(C(C)(C)C)c1NC(=O)C(=O)C(C(=O)/C=C\c1ccccc1)C1OC(=O)c2ccccc21` (stereo unspecified): the EC50 is above 214 µM and the IC50 was found to be 58.9 µM.

For `CCCc1nn2c(-c3ccccc3)nnc2o1`, the EC50 is above 200 µM and the IC50 amounted to 63.1 µM.

As for `NC(=O)N/N=C(\Cc1nc2ccc(C(=O)c3ccccc3)cc2[nH]c1=O)C(=O)Nc1ccc(Br)cc1`, the outcome was inactive.

On to `O=C1c2cscc2C(=O)c2c(Cl)sc(Cl)c21`, for which the EC50 was above 0.2 µM and the half-maximal inhibitory concentration (IC50) is above 0.2 µM.

`Cc1cccc(NC(=O)C(=O)C2C(=O)NC(=O)NC2=O)c1C`: the EC50 was above 832 µM and the 50% inhibitory concentration (IC50) turned out to be 794 µM.

Regarding `C1=C(c2ccccc2)N2CCCNC2(c2ccccc2)CS1` (stereo unspecified), the EC50 was above 200 µM and the half-maximal inhibitory concentration (IC50) came out at 132 µM.

As for `O=[N+]([O-])c1ccccc1S(=O)(=O)Cc1ccccc1`, the EC50 was above 245 µM and the IC50 was above 245 µM.

For the compound `CC1(C)CN=C(Nc2ccc(F)c(F)c2)S1`, the EC50 was above 200 µM and the half-maximal inhibitory concentration (IC50) was above 200 µM.

For the compound `CCOc1snc(C(Cl)(Cl)Cl)c1Cl`, the EC50 was above 200 µM and the IC50 was above 200 µM.

With `N#Cc1[nH]c(=O)n(-c2cccc3ccccc23)c1N`, the EC50 is above 200 µM and the half-maximal inhibitory concentration (IC50) was above 200 µM.

Regarding `Cc1nccn1Cc1c(N)nc(N)[nH]c1=O`, the EC50 was above 200 µM and the IC50 is above 200 µM.

As to `CC1(C)O[C@@H](CO)[C@H]([C@@]23OC[C@H]4OC(C)(C)OC4[C@@H]2OC(C)(C)O3)O1` (stereo partly specified), the EC50 was above 200 µM and the IC50 was above 200 µM.

For `CC(C)(C)[Si](C)(C)OCCOCn1cc(F)c(=O)[nH]c1=O`, the EC50 was above 200 µM and the IC50 is above 200 µM.

For `CC1=C(/C=C/C(C)=C/C=C/C(C)=C/C=C/C=C(C)/C=C/C=C(C)/C=C/C2=C(C)C(=O)C(O)CC2(C)C)C(C)(C)CC(O)C1=O` (stereo unspecified), the EC50 is above 43.7 µM and the IC50 is above 43.7 µM.

As to `CC1(CC2=C(Br)CCCC2)C(=O)CC=C1O` (stereo unspecified), the EC50 was above 200 µM and the IC50 came out at 174 µM.

Consider `COc1nc2c(c(=O)n1C)N[C@@H]1[C@@H](O)[C@H](O)CO[C@@H]1N2`, for which the EC50 was above 200 µM and the half-maximal inhibitory concentration (IC50) is above 200 µM.

In the case of `COC(=O)[C@H](CO)NC(=O)CC/C(C)=C/c1ccccc1`, the EC50 was above 200 µM and the half-inhibitory concentration (IC50) was 191 µM.

On to `CN1C(=O)N(C)C(O)C1O` (stereo unspecified), for which the EC50 is above 200 µM and the IC50 is above 200 µM.

As to `COc1ccc(-c2coc3c(OC)c(OC)c(OC)c(OC)c3c2=O)cc1`, the EC50 is above 200 µM and the IC50 was 44.7 µM.

Take `CCOc1ccc(N=Nc2ccc(/C=C/c3ccc(N=Nc4ccc(OCC)cc4)cc3S(=O)(=O)O)c(S(=O)(=O)O)c2)cc1`: the concentration for a half-maximal effect (EC50) was 30.2 µM; the half-inhibitory concentration (IC50) was > 200 µM and 195 µM.

In the case of `O=C1c2ccccc2S(=O)(=O)c2ccccc21`, the concentration for a half-maximal effect (EC50) was 129 µM and the IC50 stood at 501 µM.

For the compound `O=C1/C(=C/c2ccccc2)CSC/C1=C\c1ccccc1`, the EC50 is above 200 µM and the concentration for half-maximal inhibition (IC50) is 2.4 µM.

As for `CCOc1ccc(-c2nc(-c3oc4ccccc4c(=O)c3OC(C)=O)cs2)cc1`, the EC50 is above 200 µM and the IC50 was 112 µM.

Take `CCOC(=S)/C=C/c1ccccc1`: the outcome was inactive.

In the case of `CC(=O)/C(=C/c1cccc(Cl)c1)C(=O)c1ccccc1`, the EC50 is above 34.7 µM and the IC50 stood at 17 µM.

Consider `COc1cc2nncc(SCc3ccc(Cl)c(Cl)c3)c2cc1OC`, for which the EC50 is above 39.8 µM and the half-inhibitory concentration (IC50) turned out to be 4.57 µM.

In the case of `COC(=O)C(=O)C1CCCC(c2nc3n(c2O)C(=N)N=N3)C1=O` (stereo unspecified), the EC50 is above 776 µM and the IC50 is above 776 µM.

Turning to `O=C1NCC2(CCN(Cc3ccccc3)CC2)N1`, the EC50 is above 200 µM and the 50% inhibitory concentration (IC50) was above 200 µM.

`CCCCOB(OCCCC)OCCCC`: the EC50 is above 200 µM and the IC50 is above 200 µM.

Turning to `COc1ccc(/C(C#N)=C/c2ccccc2)cc1`, the EC50 was above 200 µM and the IC50 came to 10.7 µM.

Turning to `CCCCCCCCCCCCC(C(=O)O)C(=O)O`, the EC50 was above 251 µM and the IC50 is above 251 µM.

For `O=c1[nH]c(SCc2c(Cl)c(Cl)c(Cl)c(Cl)c2Cl)nc(=S)[nH]1`, the EC50 was above 200 µM and the IC50 stood at 83.2 µM.

Take `CC1OC(OC2C(Oc3cc(O)c4c(c3)O[C@H](c3ccc(O)cc3)CC4=O)OC(CO)C(O)C2O)C(O)C(O)C1O` (stereo partly specified): the EC50 was above 200 µM and the half-inhibitory concentration (IC50) was above 200 µM.

As to `Cc1ccc(NC(=O)CC(=O)n2nc(C)c(N=Nc3ccc(S(=O)(=O)CCOS(=O)(=O)O)cc3)c2C)cc1`, the EC50 is above 200 µM and the IC50 is above 200 µM.

On to `CCOC(=O)c1c(-c2ccc(OC)c(O)c2)c(C#N)c(=S)n(C2OC(CO)C(O)C(O)C2O)c1-c1ccccc1` (stereo unspecified), for which the EC50 was above 200 µM and the IC50 is above 200 µM.

Regarding `Cc1cc(C)n(C2=NS(=O)(=O)c3ccccc3N2C)n1`, the EC50 was above 123 µM and the IC50 was above 123 µM.

In the case of `NCCN1CC2CCC(CC2)C1`, the EC50 was above 200 µM and the IC50 came to 182 µM.

As for `CC(CN1NC12CCCC2)N1NC12CCCC2` (stereo unspecified), the EC50 was above 200 µM and the half-maximal inhibitory concentration (IC50) was above 200 µM.

For `O=c1nc2ccc3[nH]c(O)c4ccc1c2c34`, the EC50 is above 200 µM and the half-maximal inhibitory concentration (IC50) was found to be 178 µM.

As for `Nc1ncnc2c1ncn2C(=O)NC12CC3CC(CC(C3)C1)C2`, the EC50 is above 100 µM and the concentration for half-maximal inhibition (IC50) was above 100 µM.

`NC1=NC2(CS1)CSC(N)=N2`: the EC50 was above 263 µM and the IC50 is above 263 µM.

In the case of `CN(CC(O)C(O)C(O)C(O)CO)CN1C(=O)C(=O)c2ccccc21` (stereo unspecified), the EC50 was above 200 µM and the half-maximal inhibitory concentration (IC50) came out at 34.7 µM.

As for `O=C1OCCC12CN(Cc1ccccc1)N=N2` (stereo unspecified), the EC50 was above 200 µM and the half-maximal inhibitory concentration (IC50) was above 200 µM.

On to `OCC(O)C(O)C(O)C(O)c1nc2ccccc2s1` (stereo unspecified), for which the EC50 was above 126 µM and the 50% inhibitory concentration (IC50) stood at 97.7 µM.

In the case of `COc1ccc(S(=O)(=O)NNS(C)(=O)=O)cc1`, the EC50 is above 447 µM and the IC50 was 87.1 µM.

For the origin of these results see PubChem BioAssay AID179 (DTP/NCI, 2004).
